This note sets out measurements from ChEMBL document CHEMBL4007488, “Amphiphilic Indole Derivatives as Antimycobacterial Agents: Structure-Activity Relationships and Membrane Targeting Properties” (J Med Chem, 2017).

In assay [1] the test system is Mycobacterium tuberculosis variant bovis. The experiment in a line: Antimycobacterial activity against Mycobacterium bovis BCG ATCC 35734 after 5 days by broth dilution method. As to conditions: ATCC 35734, 120 h. Format: functional. For orientation: Broth dilution looks for growth in wells or tubes with falling amounts of substance.
Assay [2] shares this test system. The assay can be described thus: Antimycobacterial activity against Mycobacterium bovis BCG ATCC 35734 assessed as growth inhibition at 10 uM after 5 days relative to control. As to conditions: ATCC 35734, 120 h, read-out: GI. Format: functional.

In brackets after ≈: the same amount, converted by molar mass.

For orientation: MIC50 means the lowest concentration that inhibits either 50% of growth or 50% of the strains tested, depending on the study. Read a low MIC50 as greater potency. The MIC90 is an inhibitory concentration at the 90% level, which refers to growth in some studies and to a panel of isolates in others. In assay [1], `CCCCCCCCn1cc(CN2CCCCC2)c2cc(Br)ccc21` gave an MIC50 of 5 µM (≈ 2.03 µg/mL) and an MIC90 of 9 µM (≈ 3.65 µg/mL). The inhibition of growth at 10 µM in assay [2] amounted to 99%.
In assay [1], `CCCCCCCCn1cc(CN2CCC3(CC2)OCCO3)c2cccc(OC)c21` yielded an MIC50 of 28 µM (≈ 11.6 µg/mL) and an MIC90 of 42 µM (≈ 17.4 µg/mL). The inhibition of growth at 10 µM in assay [2] came to 99%.
In the case of `CC(C)=CCC/C(C)=C/Cn1cc(CN2CCS(=O)(=O)CC2)c2cc(F)ccc21`, in assay [1], the MIC50 is greater than 50 µM and the MIC90 was greater than 50 µM. For the same compound, in assay [2], the inhibition of growth at 10 µM amounted to 99%.
In assay [1], `Fc1ccc2c(c1)c(CN1CCCCC1)cn2CCCc1ccccc1` showed an MIC50 of 10 µM (≈ 3.5 µg/mL) and an MIC90 of 20 µM (≈ 7.01 µg/mL). Also, in assay [2], the inhibition of growth at 10 µM was 99%.
Turning to `CCCCCCCCn1cc(CN2CCCCC2)c2cccc(F)c21`, in assay [1], the MIC50 came out at 8 µM (≈ 2.76 µg/mL) and the MIC90 amounted to 11 µM (≈ 3.79 µg/mL). Besides, in assay [2], the inhibition of growth at 10 µM stood at 99%.
The corresponding values for `CCCCCCCCn1cc(CN2CCC(C)CC2)c2ccc(OC)cc21` are 3 µM (≈ 1.11 µg/mL), 5 µM (≈ 1.85 µg/mL) and 99%.
The corresponding values for `CCCCCCCCn1cc(CN2CCCC2)c2cc(F)ccc21` are 10 µM (≈ 3.3 µg/mL), 24 µM (≈ 7.93 µg/mL) and 99%.
The corresponding values for `CCCCCCCCn1cc(CN2CCCCC2)c2ccccc21` are 14 µM (≈ 4.57 µg/mL), 31 µM (≈ 10.1 µg/mL) and 99%.
In assay [1], `CCCCCCCCn1cc(CN2CCCCC2)c2ccc(F)cc21` showed an MIC50 of 6 µM (≈ 2.07 µg/mL) and an MIC90 of 12 µM (≈ 4.13 µg/mL). In assay [2], the inhibition of growth at 10 µM is 99%.
In assay [1], `CCCCCCCCn1cc(CN2CCC(C)CC2)c2c(OC)cccc21` came in with an MIC50 of 10 µM (≈ 3.71 µg/mL) and an MIC90 of 18 µM (≈ 6.67 µg/mL). The inhibition of growth at 10 µM in assay [2] came out at 99%.
In assay [1], `CCCCCCCCn1cc(CN2CCC3(CC2)OCCO3)c2cccc(F)c21` came in with an MIC50 of 3 µM (≈ 1.21 µg/mL) and an MIC90 of 7 µM (≈ 2.82 µg/mL). The inhibition of growth at 10 µM in assay [2] worked out at 99%.
In the case of `Fc1ccc2c(c1)c(CN1CCCCC1)cn2CCC1CCCCC1`, in assay [1], the MIC50 was 17 µM (≈ 5.82 µg/mL) and the MIC90 came to 27 µM (≈ 9.25 µg/mL). Further, the inhibition of growth at 10 µM in assay [2] worked out at 99%.
On the same counts, the results for `CC(C)=CCC/C(C)=C/Cn1cc(CN2CCCCCC2)c2cc(F)ccc21` are 4 µM (≈ 1.53 µg/mL), 7 µM (≈ 2.68 µg/mL) and 99%.
In assay [1], `CCCCCCCCCCCCn1cc(CN2CCCCCC2)c2c(F)cccc21` came in with an MIC50 of 7 µM (≈ 2.9 µg/mL) and an MIC90 of 10 µM (≈ 4.15 µg/mL). The inhibition of growth at 10 µM in assay [2] was 99%.
On the same counts, the results for `CCCCCCCCn1cc(CN(C)CCC)c2cc(F)ccc21` are 12 µM (≈ 3.99 µg/mL), 35 µM (≈ 11.6 µg/mL) and 99%.
In assay [1], `CC(C)=CCC/C(C)=C/Cn1cc(CN2CCC3(CC2)OCCO3)c2cc(F)ccc21` registered an MIC50 of 5 µM (≈ 2.13 µg/mL) and an MIC90 of 9 µM (≈ 3.84 µg/mL). For the same compound, the inhibition of growth at 10 µM in assay [2] was determined as 99%.
The corresponding values for `CCCCCCCCn1cc(CN2CCCCC2)c2ccc(OC)cc21` are 7 µM (≈ 2.5 µg/mL), 13 µM (≈ 4.64 µg/mL) and 99%.
With `CCCCCCCCn1cc(CNC23CC4CC(CC(C4)C2)C3)c2ccc(OC)cc21`, in assay [1], the MIC50 was 3 µM (≈ 1.27 µg/mL) and the MIC90 was 6 µM (≈ 2.54 µg/mL). The inhibition of growth at 10 µM in assay [2] came to 99%.
As to `CCCCCCCCn1cc(CNC23CC4CC(CC(C4)C2)C3)c2cc(OC)ccc21`, in assay [1], the MIC50 worked out at 3 µM (≈ 1.27 µg/mL) and the MIC90 was 5 µM (≈ 2.11 µg/mL). The inhibition of growth at 10 µM in assay [2] worked out at 99%.
On the same counts, the results for `CC(C)=CCC/C(C)=C/Cn1cc(CN2CCCCC2)c2cc(F)ccc21` are 5 µM (≈ 1.84 µg/mL), 11 µM (≈ 4.05 µg/mL) and 99%.
The corresponding values for `CCCCCCCCn1cc(CNC2CC2)c2cc(F)ccc21` are 11 µM (≈ 3.48 µg/mL), 27 µM (≈ 8.54 µg/mL) and 99%.
Consider `CCCCCCCCn1cc(CNC23CC4CC(CC(C4)C2)C3)c2c(OC)cccc21`, for which, in assay [1], the MIC50 was determined as 6 µM (≈ 2.54 µg/mL) and the MIC90 was determined as 12 µM (≈ 5.07 µg/mL). In addition, in assay [2], the inhibition of growth at 10 µM worked out at 99%.
On the same counts, the results for `CCCCNC(=O)Cn1cc(CN2CCCCC2)c2cc(F)ccc21` are greater than 50 µM, greater than 50 µM and 99%.
In the case of `CC(C)=CCC/C(C)=C/Cn1cc(CN2CCCCC2)c2ccccc21`, in assay [1], the MIC50 was 3 µM (≈ 1.05 µg/mL) and the MIC90 is 6 µM (≈ 2.1 µg/mL). The inhibition of growth at 10 µM in assay [2] amounted to 99%.
In assay [1], `CCCCCCCCn1cc(CN(CC)CCC)c2cc(F)ccc21` displayed an MIC50 of 7 µM (≈ 2.43 µg/mL) and an MIC90 of 39 µM (≈ 13.5 µg/mL). Besides, the inhibition of growth at 10 µM in assay [2] was 99%.
On the same counts, the results for `CC(C)=CCC/C(C)=C/Cn1cc(CN2CCCCC2)c2cc(Cl)ccc21` are 7 µM (≈ 2.69 µg/mL), 10 µM (≈ 3.85 µg/mL) and 99%.
In assay [1], `CCCCCCCCn1cc(CN2CCC(C)CC2)c2cc(F)ccc21` came in with an MIC50 of 4 µM (≈ 1.43 µg/mL) and an MIC90 of 6 µM (≈ 2.15 µg/mL). Also, the inhibition of growth at 10 µM in assay [2] was determined as 99%.
On the same counts, the results for `CC(C)=CCC/C(C)=C/Cn1cc(CNC2CCCC2)c2cc(F)ccc21` are 8 µM (≈ 2.95 µg/mL), 14 µM (≈ 5.16 µg/mL) and 99%.
In assay [1], `CC(C)=CCC/C(C)=C/Cn1cc(CN2CCCC2)c2cc(F)ccc21` returned an MIC50 of 13 µM (≈ 4.61 µg/mL) and an MIC90 of 25 µM (≈ 8.86 µg/mL). Also, the inhibition of growth at 10 µM in assay [2] is 99%.
In assay [1], `CCCCCCCCn1cc(CNC23CC4CC(CC(C4)C2)C3)c2c(F)cccc21` came in with an MIC50 of 2 µM (≈ 0.821 µg/mL) and an MIC90 of 3 µM (≈ 1.23 µg/mL). The inhibition of growth at 10 µM in assay [2] was 99%.
On the same counts, the results for `CCCCCCCCn1cc(CNC23CC4CC(CC(C4)C2)C3)c2cccc(F)c21` are 3 µM (≈ 1.23 µg/mL), 5 µM (≈ 2.05 µg/mL) and 99%.
In assay [1], `CC(C)=CCC/C(C)=C/Cn1cc(CN(C)C)c2cc(F)ccc21` yielded an MIC50 of 14.5 µM (≈ 4.76 µg/mL) and an MIC90 of 25 µM (≈ 8.21 µg/mL). In addition, in assay [2], the inhibition of growth at 10 µM amounted to 99%.
As to `CCCCCCCCn1cc(CN2CCOCC2)c2cc(F)ccc21`, in assay [1], the MIC50 came out at 16 µM (≈ 5.54 µg/mL) and the MIC90 was greater than 50 µM. For the same compound, the inhibition of growth at 10 µM in assay [2] is 99%.
In assay [1], `CCCCCCCCn1cc(CN2CCC(C)CC2)c2cccc(F)c21` registered an MIC50 of 4 µM (≈ 1.43 µg/mL) and an MIC90 of 6 µM (≈ 2.15 µg/mL). For the same compound, the inhibition of growth at 10 µM in assay [2] amounted to 99%.
On the same counts, the results for `Fc1ccc2c(c1)c(CN1CCCCC1)cn2Cc1ccccc1` are 35 µM (≈ 11.3 µg/mL), greater than 50 µM and 99%.
On the same counts, the results for `CCCN(CC)Cc1cn(C/C=C(\C)CCC=C(C)C)c2ccc(F)cc12` are 13 µM (≈ 4.82 µg/mL), 25 µM (≈ 9.26 µg/mL) and 99%.
Regarding `CCCCCCCCn1cc(CNC2CCCC2)c2cc(F)ccc21`, in assay [1], the MIC50 is 6 µM (≈ 2.07 µg/mL) and the MIC90 is 21 µM (≈ 7.23 µg/mL). Moreover, in assay [2], the inhibition of growth at 10 µM turned out to be 99%.
The corresponding values for `CC(C)=CCC/C(C)=C/Cn1cc(CNC23CC4CC(CC(C4)C2)C3)c2cc(F)ccc21` are 17.5 µM (≈ 7.61 µg/mL), 25.5 µM (≈ 11.1 µg/mL) and 99%.
For `CCCCCCCCn1cc(CN2CCCCC2)c2c(OC)cccc21`, in assay [1], the MIC50 came out at 16 µM (≈ 5.7 µg/mL) and the MIC90 is 35 µM (≈ 12.5 µg/mL). Further, in assay [2], the inhibition of growth at 10 µM was 99%.
